From US11845990B2, “Prediction of sleep parameter and response to sleep-inducing compound based on PER3 VNTR genotype” (Vanda Pharmaceuticals Inc., priority 2007, dated 2023)

What was measured:
[1] = Solubility and pH of saturated solution; format: physicochemical
[2] = system: healthy male and female subjects with induced transient insomnia; test: Induced transient insomnia clinical study (first night effect plus 5-hour phase advance), polysomnography, by PER3 VNTR genotype; format: in vivo, human; set-up: greater sleep efficiency over subjects on placebo (full night) / lower sleep efficiency than subjects on placebo (full night) / sleep efficiency higher than in placebo, first third of the night / sleep efficiency higher than in placebo, second third of the night / sleep efficiency lower than in placebo, first third of the night / sleep efficiency lower than in placebo, second third of the night: concentration or dose not given beside the values
Text: The effect of this polymorphism was investigated with respect to various sleep parameters (latency to persistent sleep, wake after sleep onset, sleep efficiency), which evaluated objectively by polysomnography in healthy subjects treated with (1R-trans)-N-[[2-(2,3-dihydro-4-benzofuranyl)cyclopropyl]methyl]propanamide, or treated with a placebo, in a clinical protocol that models transient insomnia.
Transient insomnia can be induced in a laboratory setting as a result of a “first night effect” in which sleep onset and sleep maintenance are disrupted in normal sleeping adults by sleeping in an unfamiliar surrounding. This model of transient insomnia has been validated in several studies of normal sleeping adults. Insomnia can also be precipitated by other factors such as traveling across multiple time zones (jet lag). This condition can be reproduced in a sleep laboratory by forcing an earlier bedtime (phase advance). The study reported here used both, the first night effect and a 5-hour phase advance component, to increase the likelihood that transient insomnia will be induced. A multi-center, randomized, double-blind, placebo-controlled, parallel study was conducted to investigate the efficacy and safety of a single oral dose of (1R-trans)-N-[[2-(2,3-dihydro-4-benzofuranyl)cyclopropyl]methyl]propanamide (20 mg, 50 mg, and 100 mg) and matching placebo in healthy male and female subjects with induced transient insomnia. […] Latency to Persistent Sleep (LPS), Wake After Sleep Onset (WASO) and sleep efficiency (SE) were evaluated objectively by use of polysomnography.
More than 70% of subjects who enrolled in the clinical trial consented to the optional PG study. From those, 288 were genotyped for the PER3 VNTR polymorphism.

healthy volunteers = test: Previous tolerability studies in healthy volunteers; format: in vivo

## CCC(=O)NC[C@@H]1C[C@H]1c1cccc2c1CCO2 [(1R-trans)-N-[[2-(2,3-dihydro-4-benzofuranyl)cyclopropyl]methyl]propanamide]
[1]; 95% ethanol, methanol, acetonitrile, ethyl acetate, isopropanol, polyethylene glycols (PEG-300 and PEG-400)
  solubility in organic solvents: very soluble or freely soluble
[1]; saturated solution in water
  native pH of a saturated solution in water: 8.5
[1]; water
  effect of pH on aqueous solubility: practically unaffected by pH
  solubility in water: only slightly soluble
[2]; PER3 4/4 and 4/5 genotypes
  shorter LPS period than with placebo: 30 min
  shorter LPS period than with placebo (percent): 56%
  smaller WASO than with placebo: 21 min
  smaller WASO than with placebo (percent): 16%
[2]; PER3 4/4 and 4/5 genotypes, first third of night
  sleep efficiency higher than in placebo, first third of the night: 29%
[2]; PER3 4/4 and 4/5 genotypes, full night
  greater sleep efficiency over subjects on placebo (full night): 12%
[2]; PER3 4/4 and 4/5 genotypes, second third of night
  sleep efficiency higher than in placebo, second third of the night: 22.8%
[2]; PER3 5/5 genotype
  longer WASO than with placebo: 32 min
  longer WASO than with placebo (percent): 32.7%
  shorter LPS than with placebo: 8 min
  shorter LPS than with placebo (percent): 27%
[2]; PER3 5/5 genotype, first third of night
  sleep efficiency lower than in placebo, first third of the night: 7.2%
[2]; PER3 5/5 genotype, full night
  lower sleep efficiency than subjects on placebo (full night): 9.5%
[2]; PER3 5/5 genotype, second third of night
  sleep efficiency lower than in placebo, second third of the night: 3.4%
[2]; single oral dose 20, 50 or 100 mg, induced transient insomnia, vs placebo
  efficacy in improving LPS, WASO, and Sleep Efficiency: efficacious
[2]; third third of night, vs placebo
  sleep efficiency improvement in the third part of the night: no improvement
Healthy volunteers; multiple doses (up to 28 days) up to 150 mg
  tolerability, multiple doses: well-tolerated
Healthy volunteers; single doses up to 300 mg
  tolerability, single doses: well-tolerated
